From publication PMC6362118, “Pharmacophore-guided discovery of CDC25 inhibitors causing cell cycle arrest and tumor regression” (Scientific Reports, 2019)

What was measured:
[1] = system: HeLa cells; experiment: Flow cytometric analysis of cell cycle progression (DNA content) in HeLa cells; type: cell-based; details: for effect on the G1/S transition: HeLa synchronized at G2/M, 10 μM added in mid-G1, analysed 12 h post-release; for effect on cell cycle distribution (DNA content): asynchronous HeLa cells, 10 μM, 15 h
Method: Reactions were started by addition of the substrate OMFP (0.1 mM). Assays 69 were carried out at room temperature in duplicate or triplicate using transparent-bottom, 70 V-shaped 96 well plates and read at defined intervals on a Molecular Devices 71 SpectraMax microplate reader (ex: 490 nm / em: 525 nm). IC50 and kinetic parameters 72 calculated from Lineweaver-Burk double-reciprocal plots of the data were obtained using 73 GraphPad Prism software. 74 75 Cell culture - Wild-type HeLa and Kyoto HeLa cells stably expressing mCherry-H2B 76 were maintained in DMEM+L-Glutamine (Gibco, Life Technologies, USA) 77 supplemented with 5% fetal calf serum (FCS) (Gibco) and penicillin-streptomycin (100 […] A549 and Colo741 were grown and maintained like HeLa 79 cells but with 10% FCS. HCT116 were maintained in McCoy's medium supplemented 80 with 10% FCS and penicillin-streptomycin. U2OS-Tet-OFF cells expressing HA-CDC25 81 were grown and maintained in DMEM+L-Glutamine, 10% Tet-free FCS and penicillin- 82 streptomycin in the presence or the absence of 4 μg/ml tetracycline (Sigma, T7660). 83 84 Cell synchronization - Cell synchronization was performed by double thymidine block- 85 release protocol 2 or nocodazole treatment 3 and verified by flow cytometry. 86 87 Cell viability assays - Compounds viability upon 48h treatment with the compounds was 88 assessed as described 4. Data were plotted with Prism 7® and analyzed by non-linear 89 regression. Comparison of single curve fitting to all data set within an experiment was 90 performed with the extra sum-of-squares F-test to determine P values. 91 92 Western blotting - Cell lysis and immunoblot analysis were performed as previously 93 described 5. […] Cells were washed with PBS, resuspended […] To 100 quantify phosphorylation of CDK1 at Tyr15 and H2AX at S139, cells were harvested and 101 examined as described 6. Samples were measured on an AttuneTM NxT Cytometer 102 (ThermoFisher Scientific, Carlsbad, CA, USA) and data were analyzed with FlowJo® 103 software v10 (FlowJo, LLC, Ashland, OR, USA). 104 105 Real Time qRT-PCR - Organoids were lysed in Tri-Reagent (Sigma) as previously 106 described 7 and total RNA was isolated as described by manufacturer's instructions. For […] 108 High Fidelity cDNA Synthesis kit (Roche). Real-time quantitative PCR reactions were 109 performed in three independent biological replicates, each with technical triplicate, using 110 the Applied Biosystems SYBR Green Kit and monitored by the ABI Prism 7900HT 111 system (Applied Biosystem). The following primers were used: 112 Lgr5: Forward [NT] and Reverse 5'- […] 114 Lysozyme: Forward [NT] and Reverse 5'- 115 [NT]3' 116 Cryptdin: Forward [NT] and Reverse 5'- 117 [NT]-binding protein (TBP): Forward [NT] and 119 Reverse [NT] 120 […] 122 amplification curves and the melting temperature analysis of the final amplification […] 4

[2] = molecular target: T1, CDC25A (Homo sapiens, UniProt P30304); experiment: Enzymatic assay (OMFP substrate) on recombinant CDC25A; type: biochemical; details: for remaining activity at 20 µM: read-out: % remaining activity ± SD (Table S2, second round of selection); for IC50: dose-response on recombinant CDC25A
T1 construct: GST (pGEX vector) (N); made in house; host or cells: E. coli BL21
T1 sequence (P30304 1-524): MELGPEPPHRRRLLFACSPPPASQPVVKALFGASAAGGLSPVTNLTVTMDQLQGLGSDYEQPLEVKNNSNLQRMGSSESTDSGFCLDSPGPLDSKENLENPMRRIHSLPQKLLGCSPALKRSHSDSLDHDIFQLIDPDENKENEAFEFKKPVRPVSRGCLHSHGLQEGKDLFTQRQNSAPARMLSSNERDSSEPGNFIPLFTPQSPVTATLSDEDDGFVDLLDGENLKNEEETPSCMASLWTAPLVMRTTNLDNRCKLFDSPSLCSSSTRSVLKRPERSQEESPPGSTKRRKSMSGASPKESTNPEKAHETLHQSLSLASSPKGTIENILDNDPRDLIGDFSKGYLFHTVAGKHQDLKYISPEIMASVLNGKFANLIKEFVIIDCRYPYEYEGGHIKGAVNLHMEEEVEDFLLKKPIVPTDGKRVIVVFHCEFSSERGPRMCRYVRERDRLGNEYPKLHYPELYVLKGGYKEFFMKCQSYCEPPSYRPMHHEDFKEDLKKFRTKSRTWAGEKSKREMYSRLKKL
Method: 57 UPD compounds were dissolved in DMSO at 10 mM stock concentration and stored in
60 Expression and purification of CDC25 phosphatases - CDC25A (kind gift of I.
61 Hoffmann, Heidelberg, Germany), CDC25B and CDC25C (kind gift of B. Gabrielli,
62 Queensland, Australia) in pGEX were expressed in E. coli BL21 cells and purified on 1
63 ml Glutathione Sepharose 4 Fast Flow columns as described 1.
65 Enzymatic assays - CDC25A, CDC25B and CDC25C were appropriately diluted in 10
66 mM Tris-HCl pH 8.0, 50 mM NaCl and assayed in 20 mM Tris-HCl pH 8.0, 75 mM
67 NaCl, 0.5 mM EGTA, 1 mM DTT, 0.1 mg/ml BSA and defined concentrations of
68 compounds. Reactions were started by addition of the substrate OMFP (0.1 mM). Assays
69 were carried out at room temperature in duplicate or triplicate using transparent-bottom,
70 V-shaped 96 well plates and read at defined intervals on a Molecular Devices
71 SpectraMax microplate reader (ex: 490 nm / em: 525 nm). IC50 and kinetic parameters
72 calculated from Lineweaver-Burk double-reciprocal plots of the data were obtained using
73 GraphPad Prism software. […]

[3] = system: HCT116 tumors; experiment: HCT116 tumor xenograft in zebrafish embryos; type: in vivo; details: 10 µM, 3 dpi
Method: Implantation of HCT116 cells into zebrafish embryos were carried out essentially as previously described. Briefly, HCT116 cells were cultured in McCoy’s medium supplemented with 10% FCS and penicillin/streptomycin until ~80% confluence, then labeled for 30 min at 37 °C in 6 μg/mL 1,1′-dioctadecyl-3,3,3′,3′-tetramethylindocarbocyanine perchlorate (DiI, Sigma) in PBS followed by washing 3x in PBS. Labeled cells were implanted in the perivitelline space of 48 hours post-fertilization (hpf) wildtype (AB) zebrafish embryos, kept from the 1-cell stage in 1-phenyl-2-thiourea (PTU)-containing E3-water. […] As control, embryos were incubated in PTU-E3 with 0.1% DMSO (vehicle). Tumor-bearing embryos were incubated at 36 °C for three days and the change in tumor volume was evaluated as the size of the tumors at three days post-implantation (3 dpi) relative to the size immediately after implantation (0 dpi). Metastasis was evaluated at 3 dpi as the number of tumor cells present in the caudal hematopoietic plexus, the main metastatic site for tumors implanted in the perivitelline space.

[4] = system: HeLa cells; experiment: Cell viability assay on HeLa cells; type: cell-based; details: Homo sapiens, 48h treatment
Method: 75 Cell culture - Wild-type HeLa and Kyoto HeLa cells stably expressing mCherry-H2B
76 were maintained in DMEM+L-Glutamine (Gibco, Life Technologies, USA)
77 supplemented with 5% fetal calf serum (FCS) (Gibco) and penicillin-streptomycin (100
78 U/ml - 100 µg/ml) (Gibco). […]
87 Cell viability assays - Compounds viability upon 48h treatment with the compounds was
88 assessed as described 4. Data were plotted with Prism 7® and analyzed by non-linear
89 regression. Comparison of single curve fitting to all data set within an experiment was
90 performed with the extra sum-of-squares F-test to determine P values. […]

[5] = system: HeLa cells; experiment: Time-lapse microscopy of mitosis in synchronized HeLa cells; type: cell-based; details: synchronized HeLa Kyoto cells (mCherry-H2B, GFP-α-tubulin), 5 μM
Method: Cells were grown in 35 mm CellView™ cell culture dishes with glass bottom (# 627870, Greiner-BioOne) at a density of 2.5 × 10^5 cells/ml in a humidified cell incubator maintained at 37 °C and 5% CO2. Cell were viewed by phase contrast microscopy with a 10x objective using an Olympus IX 81 motorized inverted microscope (Olympus, Hamburg, Germany) equipped with external temperature control chamber and CO2 bottle to maintain cells at 37 °C with 5% CO2. Transition through mitosis was documented by acquisition of four frames per hour over a period of 14 h using a CCD camera (Orca AG, Hamamatsu) and cellR® software (Olympus). HeLa-Kyoto cells (mCherry-H2B/EGFP-α-tubulin) were visualized by fluorescence microscopy with an Olympus IX 81 microscope using a 10x objective and selecting Ex. = 492 ± 18 nm/Em. = 535 ± 50 nm for the green channel and Ex. = 572 ± 23 nm/Em. = 645 ± 75 nm for the red channel.

[6] = compound 20 µM, relative to DMSO control

Row | remaining activity at 20 µM [2, 6] [%] | Structure (SMILES) | effect on cell cycle distribution (DNA content) [1] | further results
1 | 0 | O=C1C=C(c2ccc(O)c(O)c2O)C(=O)c2c(O)cccc21 [UPD-786, 8-hydroxy-2-(2,3,4 trihydroxyphenyl) naphthalene-1,4-dione] | increase of the G1 population | IC50 [4]: 6.5 µM; IC50 [2]: 0.89 µM
2 | 70.1 ± 2 | O=C1C=C(c2c(O)cc(O)cc2O)C(=O)c2c(O)cccc21 [UPD-788, 8-hydroxy-2-(2,4,6-trihydroxyphenyl)naphthalene-1,4-dione] | – | –
3 | 8.5 ± 0.1 | O=C1C=C(N2CCCCC2)C(=O)c2c(O)cccc21 [UPD-797, 8-hydroxy-2-(piperidin-1-yl)naphthalene-1,4-dione] | – | –
4 | 41.4 ± 0.4 | O=C1C=C(N2CCOCC2)C(=O)c2c(O)cccc21 [UPD-798, N-(5-hydroxy-1,4-naphthoquinon-3-yl)morpholine] | – | –
5 | 94.4 ± 0.6 | Nc1ccc(N)c2c1C(=O)C=CC2=O [UPD-1382, 5,8-diaminonaphthalene-1,4-dione] | – | –
6 | 4.1 | Cc1cc(O)c2c(n1)C(=O)C=CC2=O [UPD-1416, 4-Hydroxy-2-methylquinoline-5,8-dione] | – | –
7 | 1.9 ± 0.3 | Cc1ccc2c(n1)C(=O)C=CC2=O [UPD-1419, 2-methyl-5,8-dihydro-5,8-dioxoquinoline] | – | –

Second part, the compound before the results:

Row | Structure (SMILES) | remaining activity at 20 µM [2, 6] [%] | effect on cell cycle distribution (DNA content) [1] | further results
8 | O=C1C=C(c2ccc(O)c(O)c2O)C(=O)c2ccccc21 [UPD-596, 2-(2,3,4-trihydroxyphenyl)-1,4-naphthoquinone] | 0 | increase of the G1 population | effect on the G1/S transition [1]: ineffective
9 | O=C1C=C(c2ccc(O)cc2O)C(=O)c2ccccc21 [UPD-597, 2-(2,4-dihydroxyphenyl)-1,4-naphthoquinone] | 3.1 ± 0.3 | – | –
10 | O=C(O)c1ccc2c(c1)C(=O)c1c(O)ccc(O)c1C2=O [UPD-724, 1,4-dihydroxy-6-anthraquinonecarboxylic acid] | 98.9 ± 1.4 | – | –
11 | O=C1C=CC(=O)c2c(O)cccc21 [UPD-738, 5-hydroxynaphtho-1,4-quinone] | 5.9 ± 0.1 | increase of the G1 population | metastasis (tumor cells in caudal hematopoietic plexus) [3]: did not appear to be significant; IC50 [4]: 4.4 µM; effect on the G1/S transition [1]: effectively blocked cells in G1
12 | COc1ccc(C2=CC(=O)c3cccc(O)c3C2=O)c(OC)c1 [UPD-790, 8-hydroxy-2-(2,4-dimethoxyphenyl)naphthalene-1,4-dione] | 5.6 ± 1.2 | accumulation of cells at G2/M | execution of mitosis at low dose (time-lapse) [5]: failed attempt to round up and execute mitosis, which was followed by membrane blebbing and death; IC50 [4]: 1.41 µM; effect on the G2/M transition ([1]; double-thymidine synchronized HeLa, 10 μM added 5 h upon release, analysed 12 h post-release): accretion of the G2/M peak
13 | Cc1ccc(SC2=CC(=O)c3cccc(O)c3C2=O)cc1 [UPD-793, 3-(p-tolylthio)juglone] | – | increase of the G1 population | effect on the G1/S transition [1]: effectively blocked cells in G1; % remaining activity ± SD (Table S2, second round of selection) [2, 6]: 1.0 ± 0.1%; IC50 [2]: 0.92 µM
